# Experimental data: patent US9446065B2, “Pharmaceutical composition for use in the treatment and/or the prevention of osteoarticular diseases” (BONE THERAPEUTICS, priority 2008, dated 2016)
# Where “and” joins values, the source holds several entries; their conditions need not be identical. Equal entries are not always repeated. Where two headings read alike, the source gives them in different places.
# What was measured:
# IL-1β = IL-1β detection (ELISA) in PBMC culture; format: cell-based, human; settings: for IL-1β detection: HA 200 μg/mL, A2A 5 μM
# Protocol: (§1) The effects of the combination clonidine and hyaluronic acid were tested in a model of Peripheral Blood Mononuclear Cells. In brief, PBMCs (Peripheral blood mononuclear cells) from heparinized venous blood of healthy volunteers were isolated by Ficoll-gradient centrifugation. MNC (Mononuclear cells) were washed three times in PBS and resuspended in RPMI-1640 medium supplemented with 100 U/mL penicillin, 100 μg/mL streptomycin, and 10% heat-inactivated FBS. Cells were seeded at 100.000 cells in 96-wel plate in a total volume of 200 μL/well.
# (§2) PBMC, at 100.000 cells/200 μL, were plated in 96-well microtiter plates and stimulated or not 10 μg/mL phytohemagglutinin (PHA). Effects of hyaluronic acid “HA” (200 μg/mL) and p-aminoclonidine “A2A” (5 μM) were tested on PBMC.
# IL-1β detection (By ELISA). Levels of IL-1β from PBMC or culture supernatants were measured by Quantikine ELISA kit (R&D Systems Inc, Minneapolis, USA). The minimum detectable concentration of IL-1β was estimated at 1.0 pg/mL.
# (§3) The release of IL-1beta by PBMC and the proliferation of PBMC, induced by PHA stimulation, were set as controls, and compared with the measures for PBMC treated with HA and/or A2A.
# [1] = tested on: PBMC (Peripheral blood mononuclear cells); test: PBMC proliferation assay (3H-thymidine); format: cell-based, human; settings: for Proliferation: HA 200 μg/mL, A2A 5 μM
# Protocol: as §1, §2
# Proliferation Assay. The culture was incubated with 1 μCi/mL 3H-thymidine for 24 h before end of culture to measure the proliferation. Then, cells were washed twice with ice-cold PBS and twice with ice-cold 5% trichloroacetic acid (TCA). Finally, cells were lysed with 0.1N NaOH-0.1% Triton-X100. Supernatants were collected and analyzed on a beta-counter in presence of scintillation liquid. Results were done in cpm (“count per minute”=disintegration number of radioactive element observed in series of successive counts of one minute).
# as §3
# IL-I beta = test: Inhibition of IL-I beta release by LPS-stimulated TH1 cells; format: cell-based
# Protocol: The inhibition of IL-I beta release by alpha-2-adrenergic agonists, induced by LPS stimulation of TH1 cells, is measured under control conditions (dexamethasone).
# acute pain = settings: cited from earlier work
# mono-arthritis symptoms = tested on: mono-arthritis symptoms; set-up: Reduction in Pain: concentration or dose not given beside the values; settings: cited from earlier work
# [2] = PBMC + PHA 10 μg/mL, PBMC + PHA = 100
# [3] = PBMC not stimulated, PBMC + PHA = 100
# [4] = average data from meta-analyses and/or published studies
compound,measurement,setting,value
"Nc1cc(Cl)c(N=C2NCCN2)c(Cl)c1 [A2A, p-aminoclonidine]","effect on IL-1beta secretion, in words",IL-1β; PBMC + PHA,totally suppresses the increase in IL-1beta secretion
same,"effect on basal conditions, in words",IL-1β; unstimulated PBMC,no effect
same,"effect on PBMC proliferation, in words",[1]; PBMC + PHA,not able to inhibit PBMC proliferation
same,Proliferation,[1]; PBMC + PHA 10 μg/mL,16212 cpm
same,Proliferation,[1]; [2],101%
same,Proliferation,[1]; PBMC not stimulated,786 cpm
same,Proliferation,[1]; [3],4.9%
Brc1c(NC2=NCCN2)ccc2nccnc12 [Brimonidine],"effect on IL-I beta release, in words",IL-I beta,no effects
C[C@@H]1C[C@H]2[C@@H]3CCC4=CC(=O)C=C[C@]4(C)[C@@]3(F)[C@@H](O)C[C@]2(C)[C@@]1(O)C(=O)CO [Dexamethasone],inhibition at 0.1 µM,"IL-I beta; 10^−7 M, read-out: inhibition of IL-I beta secretion",~65%
N=C(N)N/N=C/c1c(Cl)cccc1Cl [Guanabenz],"effect on IL-I beta release, in words",IL-I beta,no effects
"Clc1cccc(Cl)c1NC1=NCCN1 [clonidine, N-(2,6-dichlorophenyl)-4,5-dihydro-1H-imidazol-2-amine]",minimum effect duration in acute pain studies,"acute pain; Alagol et al, 2005",4 h
same,duration of effects in acute pain studies (not to exceed),"acute pain; Gentili et al, 2001",≤ 72 h
hyaluronic acid [HA],increase of IL-1beta secretion over the stimulated conditions,IL-1β; PBMC + PHA,3 times
same,IL-1β detection,IL-1β; PBMC + PHA 10 μg/mL,6394 pg/mL
same,IL-1β detection,IL-1β; [2],293% and 292%
same,IL-1β detection,IL-1β; PBMC not stimulated,2095 pg/mL
same,IL-1β detection,IL-1β; [3],96%
same,reduction of PBMC proliferation,[1]; PBMC + PHA,2 factor
same,Proliferation,[1]; PBMC + PHA 10 μg/mL,9087 cpm
same,Proliferation,[1]; [2],57% and 56%
same,Proliferation,[1]; PBMC not stimulated,364 cpm
same,Proliferation,[1]; [3],2.2%
same,Improvement in Function,"mono-arthritis symptoms; Arich et al., 2005",−11%
same,Reduction in Pain,"mono-arthritis symptoms; Arich et al., 2005",0%
same,Reduction in Pain (max effect reported),"mono-arthritis symptoms; Arich et al., 2005",−17%
same,Improvement in Function,"mono-arthritis symptoms; Kolarz et al., 2003",−23%
same,Reduction in Pain,"mono-arthritis symptoms; Kolarz et al., 2003",−55%
same,"improvement in function, maximal effect reported in literature","mono-arthritis symptoms; Kolarz et al., 2003",23%
same,"improvement in pain, maximal effect reported in literature","mono-arthritis symptoms; Kolarz et al., 2003",55%
same,Reduction in Pain,"mono-arthritis symptoms; Lo et al., 2004",−7%
same,Reduction in Pain (max effect reported),"mono-arthritis symptoms; Lo et al., 2004",−47%
same,Reduction in Pain,"mono-arthritis symptoms; Wang et al., 2004",−8%
same,Reduction in Pain (max effect reported),"mono-arthritis symptoms; Wang et al., 2004",−24%
same,Improvement in Function,mono-arthritis symptoms; [4],−15%
same,Reduction in Pain,mono-arthritis symptoms; [4],−10%
same,Side-Effects (major side effects only),mono-arthritis symptoms; [4],None
same,benefit on swelling,mono-arthritis symptoms; literature,no reported benefit on swelling
same,decrease of pain score (VAS) in meta-analyses,mono-arthritis symptoms; meta-analyses that reassessed efficacy,≤ 15 mm
